Test results published in US20230051589A1, “COMPOUNDS AND COMPOSITIONS FOR TREATING CONDITIONS ASSOCIATED WITH NLRP ACTIVITY” (Novartis AG, priority 2018, published 2023).

These compounds were tested on IL-1β production in PMA-differentiated THP-1 cells (assay: IL-1β production in PMA-differentiated THP-1 cells stimulated with gramicidin (hTHP-1 assay, 2% fetal bovine serum; Procedures 1-3)). Details: hTHP-1 assay containing 2% fetal bovine serum, Table B2, class symbols; read-out: IC50.
Type: cell-based, human
How it was run: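 IL-1β released into supernatants was read by HTRF after 2 h gramicidin (5 μM) challenge. Before challenge, compounds (3-fold dilutions, top 100 μM, 0.37% DMSO) were given 1 h on THP-1 cells differentiated with PMA (20 ng/ml, 16-18 h) and held in 2% FBS medium.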

Compound | IC50 [µM]
CC(C)(O)c1cnc(S(N)(=O)=NC(=O)Nc2c3c(cc4c2C(=O)CC4)CCC3)s1 (single isomer, unassigned) [Example 572, (R) or (S)-5-(2-hydroxypiopan-2-yl)-N′-((3-oxo-1,2,3,5,6,7-hexahydro-s-indacen-4-yl)carbamoyl)thiazole-2-sulfonimidamide] | 0.2 to 1
CC(C)(O)c1cnc(S(N)(=O)=NC(=O)Nc2c3c(cc4c2C(=O)CC4)CCC3)s1 (single isomer, unassigned) [Example 573, (S) or (R)-5-(2-hydroxypiopan-2-yl)-N′-((3-oxo-1,2,3,5,6,7-hexahydro-s-indacen-4-yl)carbamoyl)thiazole-2-sulfonimidamide] | 5 to 30
CC(C)(O)c1cc(S(N)(=O)=NC(=O)Nc2c3c(c(C#N)c4c2CCC4)CCC3)nn1-c1ccccc1 (single isomer, unassigned) [Example 574, (S) or (R)-N′-((8-cyano-1,2,3,5,6,7-hexahydro-s-indacen-4-yl)carbamoyl)-5-(2-hydroxypropan-2-yl)-1-pheny-1H-pyrazole-3-sulfonimidamide] | 5 to 30
CC(C)(O)c1cc(S(N)(=O)=NC(=O)Nc2c3c(c(C#N)c4c2CCC4)CCC3)nn1-c1ccccc1 (single isomer, unassigned) [Example 575, (R) or (S)-N′-((8-cyano-1,2,3,5,6,7-hexahydro-s-indacen-4-yl)carbamoyl)-5-(2-hydroxypropan-2-yl)-1-pheny-1H-pyrazole-3-sulfonimidamide] | 0.2 to 1
CC(C)(O)c1cc(C#N)cc(S(N)(=O)=NC(=O)Nc2c3c(c(C#N)c4c2CCC4)CCC3)c1 (single isomer, unassigned) [Example 578, (R) or (S)-3-cyano-N′-((8-cyano-1,2,3,5,6,7-hexahydro-s-indacen-4-yl)carbamoyl)-5-(2-hydroxypropan-2-yl) benzenesulfonimidamide] | 1 to 5

Further lines, results first:

IC50 [µM] | Compound
5 to 30 | CC(C)(O)c1cc(C#N)cc(S(N)(=O)=NC(=O)Nc2c3c(c(C#N)c4c2CCC4)CCC3)c1 (single isomer, unassigned) [Example 579, (S) or (R)-3-cyano-N′-((8-cyano-1,2,3,5,6,7-hexahydro-5-indacen-4-yl)carbamoyl)-5-(2-hydroxypropan-2-yl) benzenesulfonimidamide]
0.2 to 1 | CN(C)Cc1ccc(S(N)(=O)=NC(=O)Nc2c3c(cc4c2CC4)CCC3)cc1 (single isomer, unassigned) [Example 580, (R) or (S)-4-((dimethylamino)methyl)-N′-((2,4,5,6-tetrahydro-1H-cyclobuta[f]inden-3 - yl)carbamoyl) benzenesulfonimidamide]
5 to 30 | CN(C)Cc1ccc(S(N)(=O)=NC(=O)Nc2c3c(cc4c2CC4)CCC3)cc1 (single isomer, unassigned) [Example 581, (S) or (R)-4-((dimethylamino)methyl)-N′-((2,4,5,6-tetrahydro-1H-cyclobuta[f]inden-3-yl)carbamoyl) benzenesulfonimidamide]
0.2 to 1 | CN(C)Cc1ccc(S(N)(=O)=NC(=O)Nc2c3c(cc4c2CC4)CC3)cc1 (single isomer, unassigned) [Example 582, (R) or (S)-4-((dimethylamino)methyl)-N′-(tricyclo[6.2.0.03,6]deca-1,3(6),7-trien-2-ylcarbamoyl) benzenesulfonimidamide]
5 to 30 | CN(C)Cc1ccc(S(N)(=O)=NC(=O)Nc2c3c(cc4c2CC4)CC3)cc1 (single isomer, unassigned) [Example 583, (S) or (R)-4-((dimethylamino)methyl)-N′-(tricyclo[6.2.0.03,6]deca-1,3(6),7-trien-2-ylcarbamoyl) benzenesulfonimidamide]

Same assay, conditions: hTHP-1 assay containing 2% fetal bovine serum, Table B2, given as bound; read-out: IC50

IC50 [µM] | Compound
> 30 | N[S@](=O)(=NC(=O)Nc1c2c(cc3c1CCC3)CCC2)c1ccc(OC(F)F)cc1 (single isomer, unassigned) [Example 577, (S) or (R)-4-(difluoromethoxy)-N′-((1,2,3,5,6,7-hexahydro-s-indacen-4-yl)carbamoyl) benzenesulfonimidamide]
